Literature values in article PMC5354290 (PLoS ONE, 2017).

How the values were obtained:
[1] = test system: rat model of formalin-induced pain; details: in vivo, iv
[2] = test system: rat model of spared nerve injury; details: in vivo, iv

Row | Compound | effective dose, times lower than those usually required for analgesia [1] | effective dose, times lower than those usually required for analgesia [2] | inhibition (in words) (rat NaV1.2) | inhibition (in words) (rNaV1.3) | inhibition (in words) (rNaV1.4) | inhibition (in words) (rNaV1.5)
1 | CN1CC[C@]23c4c5ccc(O)c4O[C@H]2[C@@H](O)C=C[C@H]3[C@H]1C5 [morphine] | at least 20 times | at least 20 times |  |  |  | 
2 | Huwentoxin-IV [HwTx-IV] |  |  | inhibits | inhibits | far less potent | far less potent
